Results from ChEMBL document CHEMBL1134264, “Identification of a subtype selective human PPARalpha agonist through parallel-array synthesis” (Bioorg Med Chem Lett, 2001).
pEC50: −log10 of the molar value. Values joined by “and” are separate entries in the source; they are usually repeats but may differ in a detail not shown here. Identical values can stand only once. Active and inactive are the calls of the source. The rule behind the calls is not given here.

Assays:
[1] = target: T1, Peroxisome proliferator-activated receptor gamma (Homo sapiens, UniProt P37231); experiment: In vitro transcriptional activation in CV-1 cells expressing human Gal4-PPAR gamma ligand binding domain; assay type: cell-based
T1 sequence (P37231 whole entry): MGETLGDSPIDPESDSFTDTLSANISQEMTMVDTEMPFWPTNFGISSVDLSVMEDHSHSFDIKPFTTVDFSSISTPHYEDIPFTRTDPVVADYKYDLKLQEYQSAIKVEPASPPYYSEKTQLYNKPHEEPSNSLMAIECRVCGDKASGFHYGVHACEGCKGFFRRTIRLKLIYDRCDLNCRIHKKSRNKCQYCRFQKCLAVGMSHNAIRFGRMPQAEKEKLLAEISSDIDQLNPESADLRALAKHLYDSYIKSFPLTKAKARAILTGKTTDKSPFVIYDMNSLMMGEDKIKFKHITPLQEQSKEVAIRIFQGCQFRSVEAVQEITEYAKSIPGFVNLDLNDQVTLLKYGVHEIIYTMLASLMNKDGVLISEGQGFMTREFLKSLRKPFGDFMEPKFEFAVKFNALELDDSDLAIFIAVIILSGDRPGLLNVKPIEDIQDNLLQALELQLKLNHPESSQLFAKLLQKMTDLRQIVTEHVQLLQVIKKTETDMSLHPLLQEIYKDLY

[2] = target: T2, Peroxisome proliferator-activated receptor alpha (Homo sapiens, UniProt Q07869)
T2 sequence (Q07869 whole entry): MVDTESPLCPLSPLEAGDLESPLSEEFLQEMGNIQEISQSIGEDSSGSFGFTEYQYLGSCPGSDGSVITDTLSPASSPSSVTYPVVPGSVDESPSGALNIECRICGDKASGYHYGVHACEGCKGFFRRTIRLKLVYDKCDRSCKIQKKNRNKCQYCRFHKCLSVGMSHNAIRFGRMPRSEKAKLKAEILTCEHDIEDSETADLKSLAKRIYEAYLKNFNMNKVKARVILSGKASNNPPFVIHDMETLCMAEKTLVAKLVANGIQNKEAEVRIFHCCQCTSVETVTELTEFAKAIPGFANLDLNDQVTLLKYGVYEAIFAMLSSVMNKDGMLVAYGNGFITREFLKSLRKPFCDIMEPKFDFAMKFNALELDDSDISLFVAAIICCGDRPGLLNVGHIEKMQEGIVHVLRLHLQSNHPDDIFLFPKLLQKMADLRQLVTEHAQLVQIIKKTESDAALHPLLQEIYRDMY
Description: In vitro transcriptional activation in CV-1 cells expressing human Gal4-PPAR alpha ligand binding domain

[3] = target: T3, Peroxisome proliferator-activated receptor delta (Homo sapiens, UniProt Q03181); experiment: In vitro transcriptional activation in CV-1 cells expressing human Gal4-PPAR delta ligand binding domain; assay type: cell-based
T3 sequence (Q03181 whole entry): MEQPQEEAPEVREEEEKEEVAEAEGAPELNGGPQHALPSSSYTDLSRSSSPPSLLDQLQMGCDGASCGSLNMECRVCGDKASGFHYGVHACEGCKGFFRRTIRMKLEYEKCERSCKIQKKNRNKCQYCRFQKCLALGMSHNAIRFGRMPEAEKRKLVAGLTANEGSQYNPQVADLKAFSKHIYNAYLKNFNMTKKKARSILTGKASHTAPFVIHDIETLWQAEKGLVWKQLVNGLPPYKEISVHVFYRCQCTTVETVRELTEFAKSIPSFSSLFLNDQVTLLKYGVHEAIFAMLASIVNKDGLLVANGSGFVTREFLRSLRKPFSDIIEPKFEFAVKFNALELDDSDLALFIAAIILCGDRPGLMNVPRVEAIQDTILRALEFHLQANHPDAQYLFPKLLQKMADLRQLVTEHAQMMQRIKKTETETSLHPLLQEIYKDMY

[4] = tested on: Cricetinae gen. sp.; experiment: In vivo triglyceride lowering activity in fat-fed hamsters at a dose of 3 mg/kg, po for 7 days; not active; assay type: functional, organism-based; set-up: dose 3 mg/kg; conditions: Cricetulus griseus
[5] = tested on: Cricetinae gen. sp.; experiment: In vivo triglyceride lowering activity in fat-fed hamsters at a dose of 3 mg/kg, po for 7 days; assay type: functional
[6] = tested on: Rattus norvegicus; experiment: In vivo increase in HDL cholesterol in cholesterol/cholic acid fed rats at 3 mg/kg peroral dose for 4 days; assay type: functional; conditions: route oral
[7] = tested on: Rattus norvegicus; experiment: In vivo triglyceride lowering activity in cholesterol/cholic acid fed rats at 3 mg/kg peroral dose for 4 days; assay type: functional; conditions: route oral
[8] = tested on: Rattus norvegicus; experiment: In vivo decrease in serum apolipoprotein CIII in cholesterol/cholic acid fed rats at 3 mg/kg peroral dose for 4 days; assay type: functional; set-up: scale not given: the % may be the effect or the level left; conditions: route oral

Q: `CC(C)(Sc1ccc(CCN(CCCCC2CCCCC2)C(=O)Nc2cc(Cl)cc(Cl)c2)cc1)C(=O)O` was tested. Which pEC50 [1] did it give?
A: 6.00

Q: What about the pEC50 [2] of the same compound?
A: 9.00

Q: And the pEC50 [3]?
A: < 5.00

Q: And the Activity [4]?
A: inactive

Q: Which results are given for `CC(C)(Sc1ccc(CCN(CCc2ccc(-c3ccccc3)cc2)C(=O)NC2CCCCC2)cc1)C(=O)O`?
A: pEC50 [1]: 5.62; pEC50 [2]: 8.10; pEC50 [3]: 5.30; Activity [5]: -70%

Q: With `CCCCCCCN(CCc1ccc(SC(C)(C)C(=O)O)cc1)C(=O)Nc1ccc(F)cc1F` [GSK-9578] as the compound, how does the Activity [5] read?
A: -88%

Q: What does the source list for `COc1ccc(C)cc1NC(=O)N(CCc1ccc(SC(C)(C)C(=O)O)cc1)CCc1ccc(-c2ccccc2)cc1`?
A: pEC50 [1]: 5.00; pEC50 [2]: 7.00; pEC50 [3]: < 5.00; Activity [5]: -33%

Q: `CC(C)c1ccc(NC(=O)N(CCc2ccc(SC(C)(C)C(=O)O)cc2)CCc2ccc(-c3ccccc3)cc2)cc1` was tested. Which pEC50 [1] did it give?
A: 5.07 and 5.85

Q: What about the pEC50 [2] of the same compound?
A: 7.77 and 7.70

Q: And the pEC50 [3]?
A: < 5.00 and 5.70

Q: What about the Activity [4] of the same compound?
A: inactive

Q: Which results are given for `COc1ccccc1NC(=O)N(CCCCC1CCCCC1)CCc1ccc(SC(C)(C)C(=O)O)cc1`?
A: pEC50 [1]: 6.49; pEC50 [2]: 8.30; pEC50 [3]: 5.96; Activity [4]: inactive

Q: What does the source list for `CC(C)(Sc1ccc(CCN(CCCCC2CCCCC2)C(=O)NC2CCCCC2)cc1)C(=O)O` [GW7647]?
A: Activity [6]: 60%; Activity [7]: 60%; Activity [5]: -93%; Activity [8]: 40%

Q: How did the pEC50 [1] turn out when `Cc1ccc(NC(=O)N(CCCCC2CCCCC2)CCc2ccc(SC(C)(C)C(=O)O)cc2)cc1[N+](=O)[O-]` was run?
A: 5.70

Q: What about the pEC50 [2] of the same compound?
A: 7.70

Q: What about the pEC50 [3] of the same compound?
A: < 5.00

Q: And the Activity [5]?
A: -78%

Q: With `CC(C)(Sc1ccc(CCN(CCc2ccc(-c3ccccc3)cc2)C(=O)Nc2cc(Cl)cc(Cl)c2)cc1)C(=O)O` as the compound, how does the pEC50 [1] read?
A: 5.70

Q: And the pEC50 [2]?
A: 7.30

Q: And the pEC50 [3]?
A: < 5.00

Q: And the Activity [4]?
A: inactive

Q: What does the source list for `COc1ccc(NC(=O)N(CCc2ccc(SC(C)(C)C(=O)O)cc2)CCc2ccc(-c3ccccc3)cc2)c(OC)c1`?
A: pEC50 [1]: 5.92; pEC50 [2]: 8.22; pEC50 [3]: 5.40; Activity [4]: inactive

Q: Which results are given for `CC(C)(Sc1ccc(CCN(CCCCC2CCCCC2)C(=O)Nc2cccc(C#N)c2)cc1)C(=O)O`?
A: pEC50 [1]: 6.00; pEC50 [2]: 8.05; pEC50 [3]: < 5.00; Activity [5]: -69%

Q: How did the pEC50 [1] turn out when `Cc1cc(C)c(NC(=O)N(CCc2ccc(SC(C)(C)C(=O)O)cc2)CCc2ccc(-c3ccccc3)cc2)cc1C` was run?
A: 5.87

Q: What about the pEC50 [2] of the same compound?
A: 8.05

Q: What about the pEC50 [3] of the same compound?
A: < 5.00

Q: What about the Activity [4] of the same compound?
A: inactive
